The values below come from patent US12428423B2, “1H-imidazo[4,5-h]quinazoline compound as protein kinase inhibitor” (SHENGKE PHARMACEUTICALS (JIANGSU) LTD., priority 2017, dated 2025).

One test deals with neointimal formation. The conditions noted are these: rats; cited from earlier work.
Another test deals with CDK4/cyclin D1 (Homo sapiens (Human), UniProt P11802). In words: Biochemical kinase inhibitory assay, CDK4/cyclin D1. The conditions noted are these: recombinant CDK4/cyclin D1; in the presence of 10 μM ATP. On the procedure:
Potency determination in the biochemical kinase inhibitory assay. Kinase activity assay and IC50 determination. […] The kinase reaction was initiated by the addition of 1 μg (1.5 μM) of recombinant retinoblastoma protein, 5 μM ATP and 10μ Ci γ-32P-ATP. The reaction was incubated at 30° C. for 20 minutes, and the reaction was stopped by the addition of 2× Laemmli sample buffer, heated at 95° C. for three minutes, and dissolved in 12% acrylamide SDS-PAGE for autoradiography. The corresponding phosphorylated substrate protein bands were quantified using a densitometer (Bio-Rad). […] The reaction took place in the presence of 10 μM ATP.

A further test addresses CDK6/cyclin D1 (Homo sapiens (Human), UniProt Q00534). In words: Biochemical kinase inhibitory assay, CDK6/cyclin D1. The conditions noted are these: in the presence of 10 μM ATP. As to the method:
Potency determination in the biochemical kinase inhibitory assay. Kinase activity assay and IC50 determination. […] The kinase reaction was initiated by the addition of 1 μg (1.5 μM) of recombinant retinoblastoma protein, 5 μM ATP and 10μ Ci γ-32P-ATP. The reaction was incubated at 30° C. for 20 minutes, and the reaction was stopped by the addition of 2× Laemmli sample buffer, heated at 95° C. for three minutes, and dissolved in 12% acrylamide SDS-PAGE for autoradiography. The corresponding phosphorylated substrate protein bands were quantified using a densitometer (Bio-Rad). […] The compounds disclosed herein were tested in a similar manner for their inhibitory activities against CDK6/cyclin D1, CDK2/cyclin A, CDK5/cyclin P25, CDK9/cyclin Ti, CDK7/cyclin H and CDK19/cyclin C. […] The reaction took place in the presence of 10 μM ATP.

Molecules are shown by their SMILES.

Chain of CDK4/cyclin D1 (P11802 whole entry): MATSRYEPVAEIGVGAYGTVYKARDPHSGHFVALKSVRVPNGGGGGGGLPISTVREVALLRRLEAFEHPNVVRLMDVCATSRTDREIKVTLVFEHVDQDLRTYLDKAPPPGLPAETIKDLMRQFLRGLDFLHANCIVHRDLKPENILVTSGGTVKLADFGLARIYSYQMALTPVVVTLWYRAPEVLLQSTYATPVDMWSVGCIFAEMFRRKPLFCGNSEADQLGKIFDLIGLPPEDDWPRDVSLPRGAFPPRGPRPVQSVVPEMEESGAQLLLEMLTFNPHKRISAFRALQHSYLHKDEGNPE
Chain of CDK4/cyclin D1 (P24385 whole entry partner): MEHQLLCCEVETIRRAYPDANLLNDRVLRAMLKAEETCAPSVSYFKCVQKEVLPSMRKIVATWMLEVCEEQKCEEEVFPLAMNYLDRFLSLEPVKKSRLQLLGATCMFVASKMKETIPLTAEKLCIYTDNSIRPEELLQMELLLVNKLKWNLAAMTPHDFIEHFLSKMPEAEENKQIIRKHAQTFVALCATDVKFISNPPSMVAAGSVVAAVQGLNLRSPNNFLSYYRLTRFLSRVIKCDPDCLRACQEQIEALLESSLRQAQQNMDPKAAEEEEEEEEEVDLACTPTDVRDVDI
Chain of CDK6/cyclin D1 (Q00534 whole entry): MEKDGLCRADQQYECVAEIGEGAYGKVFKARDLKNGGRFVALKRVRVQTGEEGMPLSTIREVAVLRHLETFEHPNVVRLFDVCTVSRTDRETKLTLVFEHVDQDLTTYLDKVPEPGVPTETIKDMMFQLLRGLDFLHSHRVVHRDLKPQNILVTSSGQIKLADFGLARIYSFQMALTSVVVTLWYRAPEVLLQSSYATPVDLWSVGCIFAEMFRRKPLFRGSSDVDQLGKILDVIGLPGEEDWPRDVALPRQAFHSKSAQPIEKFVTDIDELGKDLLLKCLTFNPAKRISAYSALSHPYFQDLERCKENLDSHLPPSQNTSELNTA
Chain of CDK6/cyclin D1 (P24385 whole entry partner): as the sequence (P24385 whole entry partner) above

For the compound `COc1ccc(CNc2nc(N(CCO)CCO)nc3c2ncn3C(C)C)cc1` [CVT-313], in the test with neointimal formation, the “inhibition of neointimal formation” value is recorded as “more than 80%”.

In the case of `Cc1nc(Nc2ncc3ccc4ncn(C5CC5)c4c3n2)ccc1N1CCOCC1` [Compound I-51], the IC50 at CDK4/cyclin D1 and at CDK6/cyclin D1 was 10 to 50 nM each time.

As to `c1cc(Nc2ncc3ccc4ncn(C5CCC5)c4c3n2)ncc1N1CCNCC1` [Compound I-52], the half-inhibitory concentration (IC50) at CDK4/cyclin D1 and at CDK6/cyclin D1 was 10 to 50 nM in each case.

In the case of `Cc1cc(Nc2ncc3ccc4ncn(C5CCC5)c4c3n2)ncc1N1CCNCC1` [Compound I-53], the 50% inhibitory concentration (IC50) at CDK4/cyclin D1 and on CDK6/cyclin D1 was 10 to 50 nM in each case.

For `Cc1nc(Nc2ncc3ccc4ncn(C5CCC5)c4c3n2)ccc1N1CCNCC1` [Compound I-54], the IC50 on CDK4/cyclin D1 and at CDK6/cyclin D1 was 10 to 50 nM in each case.

On to `c1cc(Nc2ncc3ccc4ncn(C5CCC5)c4c3n2)ncc1N1CCOCC1` [Compound I-55], for which the IC50 on CDK4/cyclin D1 and on CDK6/cyclin D1 was 10 to 50 nM throughout.

`Cc1cc(Nc2ncc3ccc4ncn(C5CCC5)c4c3n2)ncc1N1CCOCC1` [Compound I-56]: the IC50 on CDK4/cyclin D1 and at CDK6/cyclin D1 was 10 to 50 nM in each case.

In the case of `c1cc(Nc2ncc3ccc4ncn(C5CCCC5)c4c3n2)ncc1N1CCNCC1` [Compound I-57], the half-inhibitory concentration (IC50) at CDK4/cyclin D1 and at CDK6/cyclin D1 was < 2 nM throughout.

On to `Cc1cc(Nc2ncc3ccc4ncn(C5CCCC5)c4c3n2)ncc1N1CCNCC1` [Compound I-58], for which the IC50 on CDK4/cyclin D1 and on CDK6/cyclin D1 was 2 to 10 nM throughout.

`Cc1nc(Nc2ncc3ccc4ncn(C5CCCC5)c4c3n2)ccc1N1CCNCC1` [Compound I-59]: the IC50 at CDK4/cyclin D1 and on CDK6/cyclin D1 was 2 to 10 nM throughout.

Turning to `c1cc(Nc2ncc3ccc4ncn(C5CCCC5)c4c3n2)ncc1N1CCOCC1` [Compound I-60], the IC50 on CDK4/cyclin D1 and on CDK6/cyclin D1 was 2 to 10 nM throughout.

Regarding `Cc1cc(Nc2ncc3ccc4ncn(C5CCCC5)c4c3n2)ncc1N1CCOCC1` [Compound I-61], the IC50 on CDK4/cyclin D1 and on CDK6/cyclin D1 was 2 to 10 nM throughout.

As to `Cc1cc2ncn(C(C)C)c2c2nc(Nc3ccc(N4CCNCC4)cn3)ncc12` [Compound I-62], the IC50 at CDK4/cyclin D1 and on CDK6/cyclin D1 was 50 to 100 nM each time.

Take `Cc1cc(Nc2ncc3c(C)cc4ncn(C(C)C)c4c3n2)ncc1N1CCNCC1` [Compound I-63]: the IC50 on CDK4/cyclin D1 and at CDK6/cyclin D1 was 50 to 100 nM in each case.

On to `Cc1nc(Nc2ncc3c(C)cc4ncn(C(C)C)c4c3n2)ccc1N1CCNCC1` [Compound I-64], for which the IC50 on CDK4/cyclin D1 and at CDK6/cyclin D1 was 50 to 100 nM each time.

On to `Cc1cc2ncn(C(C)C)c2c2nc(Nc3ccc(N4CCOCC4)cn3)ncc12` [Compound I-65], for which the half-inhibitory concentration (IC50) on CDK4/cyclin D1 and at CDK6/cyclin D1 was 50 to 100 nM in each case.

In the case of `Cc1cc2ncn(C(C)C)c2c2nc(Nc3ccc(N4CCOC(C)C4)cn3)ncc12` (centres unmarked) [Compound I-66], the IC50 at CDK4/cyclin D1 and at CDK6/cyclin D1 was 50 to 100 nM in each case.

Take `CC(C)n1cnc2c(Br)cc3cnc(Nc4ccc(N5CCNCC5)cn4)nc3c21` [Compound I-67]: the IC50 on CDK4/cyclin D1 and at CDK6/cyclin D1 was 2 to 10 nM in each case.

On to `Cc1cc(Nc2ncc3cc(Br)c4ncn(C(C)C)c4c3n2)ncc1N1CCNCC1` [Compound I-68], for which the IC50 at CDK4/cyclin D1 and at CDK6/cyclin D1 was 2 to 10 nM throughout.

Turning to `Cc1nc(Nc2ncc3cc(Br)c4ncn(C(C)C)c4c3n2)ccc1N1CCNCC1` [Compound I-69], the IC50 at CDK4/cyclin D1 and at CDK6/cyclin D1 was 2 to 10 nM each time.

On to `CC(C)n1cnc2c(Br)cc3cnc(Nc4ccc(N5CCOCC5)cn4)nc3c21` [Compound I-70], for which the IC50 at CDK4/cyclin D1 and at CDK6/cyclin D1 was 2 to 10 nM throughout.

With `CC(C)n1cnc2c(Br)cc3cnc(Nc4ccc(N5CCC6(CC5)CNC6)cn4)nc3c21` [Compound I-71], the IC50 at CDK4/cyclin D1 and at CDK6/cyclin D1 was 10 to 50 nM throughout.

As to `Cc1cc2cnc(Nc3ccc(N4CCNCC4)cn3)nc2c2c1ncn2C(C)C` [Compound I-72], the IC50 at CDK4/cyclin D1 and at CDK6/cyclin D1 was 2 to 10 nM in each case.

For the compound `Cc1cc(Nc2ncc3cc(C)c4ncn(C(C)C)c4c3n2)ncc1N1CCNCC1` [Compound I-73], the IC50 on CDK4/cyclin D1 and on CDK6/cyclin D1 was 2 to 10 nM throughout.

For the compound `Cc1nc(Nc2ncc3cc(C)c4ncn(C(C)C)c4c3n2)ccc1N1CCNCC1` [Compound I-74], the IC50 on CDK4/cyclin D1 and at CDK6/cyclin D1 was 2 to 10 nM in each case.

`Cc1cc2cnc(Nc3ccc(N4CCOCC4)cn3)nc2c2c1ncn2C(C)C` [Compound I-75]: the IC50 on CDK4/cyclin D1 and on CDK6/cyclin D1 was 2 to 10 nM throughout.

In the case of `Cc1cc(Nc2ncc3cc(C)c4ncn(C(C)C)c4c3n2)ncc1N1CCOCC1` [Compound I-76], the IC50 at CDK4/cyclin D1 and at CDK6/cyclin D1 was 10 to 50 nM each time.

By IC50 is commonly meant the point on the concentration scale where inhibition reaches its midpoint.
